Earlier results as cited in patent US20090111747A1, “Anti-Diabetic or Anti-Hypertensive Dietary Supplement” (priority 2005, published 2009).
Ends that are not written are not given here.

Experiments:
[1] = tested on: rat intestinal α-glucosidase; conditions: literature, Inoue et al., 2000
mammalian α-glucosidase = conditions: literature, Oki et al., 1999

IISIGR
activity against rat intestinal α-glucosidase [1]: active against rat intestinal α-glucosidase

Ile-Ile-Ser-Ile-Gly (IISIG; printed: Ile-Ile-Ser-Ile-Gly)
activity against rat intestinal α-glucosidase [1]: active against rat intestinal α-glucosidase

Tyr-Tyr-Pro-Leu (YYPL; printed: Tyr-Tyr-Pro-Leu)
inhibitory effect on mammalian α-glucosidase (mammalian α-glucosidase): neither the hydrolysate nor the peptides had any significant inhibitory effect

VFIKAA
activity against rat intestinal α-glucosidase [1]: active against rat intestinal α-glucosidase

VFIKAAA
activity against rat intestinal α-glucosidase [1]: active against rat intestinal α-glucosidase

Val-Phe-Ile-Lys-Ala (VFIKA; printed: Val-Phe-Ile-Lys-Ala)
activity against rat intestinal α-glucosidase [1]: active against rat intestinal α-glucosidase

Val-Trp
inhibitory effect on mammalian α-glucosidase (mammalian α-glucosidase): neither the hydrolysate nor the peptides had any significant inhibitory effect
